In patent US4313943A, “7-Chloro-2,3-dihydro-5-phenyl-1-propargyl-1H-1,4-benzodiazepine-2-one, and a pharmaceutical composition thereof” (priority 1972, dated 1982):
“And” between values parts separate entries of the source, which are not always exact repeats. Equal entries are not always repeated. “Also recorded” adds a separate entry of the source.

Legend:
[1] = Comparative tranquilizing effects: four plates test; assay type: in vivo
From the text: The method utilized was the 4 plates test of J. R. Boissier, et al (European J. of Pharm. 1968, Vol. 4, pages 145-151).

[2] = Reduction in motor activity between 60 and 90 minutes; assay type: in vivo; settings: for Reduction in Motor Activity Between 60 and 90 Minutes: significance NS (comp. 1), 0.002 (comp. 4)
[3] = Rotarod test, equilibrium (Table 6); assay type: in vivo
[4] = Emotional conditioning response (CER) in rats (Brady, Skinner box); assay type: in vivo
From the text: The method utilized that was published by Brady (1956) using a Skinner Box and a combination of a sound, a light and an electrical shock to produce anxiety in the test animals.
The more an animal is anxious, the less important is the score. When a test compound is a powerful anxiolytic, the value of the score is proportional to the dosage.

[5] = Acute toxicity comparison (LD50, Litchfield and Wilcoxan); settings: in vivo
Method: Toxicity in test animals to the test compounds in terms of LD50 after oral and intraperitoneal administration was determined according to the procedure of Litchfield and Wilcoxan (1949) and the hypnotic effect on test animals was determined in accordance with the method of Janssen (1959).

[6] = Aggressive behavior elicited by foot shock; assay type: in vivo; settings: oral
From the text: The aggressive behavior of test animals was elicited by a conventional foot shock procedure after administration of Compounds 1 and 4.

[7] = Spontaneous mobility (Svenson and Thieme); assay type: in vivo
Method: Spontaneous mobility in test animals was determined by the Svenson and Thieme procedure as published in Psychopharmacologia, Vol. 14, 1969, pages 157 et seq.

[8] = Conditioned avoidance response (shuttle box); assay type: in vivo; settings: for Number of Conditioned Avoidance Responses: CMC 1% 16.7 ± 0.3
Method: Conditioned avoidance response by trained animals in a conventional shuttle box procedure was determined after oral administration of Compounds 1 and 4.

[9] = Conditioned emotional response (CER), tone paired with foot shock; assay type: in vivo
Method: Conditioned emotional response (CER) in test animals was conventionally determined by a tone paired with a foot shock which was presented to hungry animals trained to press a lever for intermittent food reinforcement. After a few such pairings, the presence of the tone alone was sufficient to disrupt the lever pressing behavior. CER is considered a model of behavior anxiety in animals. […] Thus, a 1.25 mg/kg os of compounds 1 and 4 respectively produced about a 350 and 630% increase in CER while a 5 mg/kg os of compounds 1 and 4 respectively produced about 920 and 1600% increase.

[10] = ECoG and sedation in test animals free to move; assay type: in vivo
Method: Some test animals were kept in restraint cases placed in a relatively soundproof room and some were left free to move in metal cases measuring 40×50×30 cm, which were also kept in a relatively quiet environment.
In the test animals which were free to move, the first signs of sedation produced by the intragastric administration of 7.5 mg/kg of compounds 1 and 4 appeared, respectively, at 16 minutes (compound 1) and at 8 minutes (compound 4). […] The duration of the effect was, however, shorter, not exceeding 3 hours under these conditions in contrast to the 5 hour minimum for restricted animals.

[11] = Electrogenesis of various subcortical centers; assay type: in vivo
Method: This study was conducted with test animals weighing between 2.6 and 2.8 kg, following the stereotaxic method of Monnier and Gangloff (Atlas et techniques stereotaxique pour le cerveau du lopin eveille, 1961, Elsevier Pub. Co.), permitting the stimulation of certain subcortical structures as well as a simultaneous detection and recording of their electrical activities, which were compared to that of reference cortical electrodes. In this study, the subcortical centers considered were the caudate nucleus, the dorsal hippocampus, the lateral thalamus, the mesenephalic reticular formation, and the hypothalamic reticular formation. Test compounds 1 and 4 were administered by the intragastric route with an identical dose of 7.5 mg/kg.
Spontaneous activity in the subcortical centers of the unanesthetized animals is characterized by desynchronized activity consisting of high amplitude and relatively slow rhythms (4 to 5 c/sec.), alternating with low amplitude rapid rhythms (12 to 13 c/sec.). Tracings from the hippocampus and caudate nucleus sometimes takes the form of bursts, which is less commonly the case from the thalamus. These may occur at the same time as bursts of rapid spikes arising from the frontal cortex. During periods of arousal, this desynchronized activity is followed by a synchronized theta rhythm (7 to 8 c/sec.) from the hippocampus and caudate nucleus and from the median thalamus, whereas the cortical and reticular electrical activities are transformed into ultra-rapid and low voltage rhythms (30μ volts).

[12] = test system: dorsal hippocampus; experiment: Hippocampal after-discharge (stimulation of dorsal hippocampus); assay type: in vivo; settings: 7.5 mg/kg intragastric; for Duration of Hippocampal After-Discharge: individual animals
Method: The test animals for this study were also prepared according to the technique described by Monnier and Gangloff (infra B, page 30) and the animals were kept in restraint cages in a relatively soundproof room.
The activity of test compounds 1 and 4 was assessed in identical groups of test animals for each compound, with identical numbers of animals for hippocampal after-discharges and for amygdaloid after-discharges. A dose of 7.5 mg/kg of each test compound was adminstered by the intragastric route. In each animal, after-discharges were triggered every 45 minutes after the administration of a test compound.
The stimulation consisted of a series of waves with a duration of 3 m sec., delivered at a frequency of 40 c/sec., with 5 seconds as the total duration of the stimulation. The shocks were delivered by a Neurovar neurostimulator (Alvar Electronic), coupled to a CRC cathode oscilloscope (type OC 343). Cerebral electric activity was recorded by REEGA MINI HUIT electroencephalograph (Alvar Electronic).

[13] = 7.5 mg/kg intragastric, animals free to move

Question: Which ED50 ([1]; 1 h, 60 min. after administration, doses between 0.5 and 4 mg/kg, confidence limits for P = 0.05) does the source give for `C#CCN1C(=O)CN=C(c2ccccc2)c2cc(Cl)ccc21` [Compound 1, 7-chloro-2,3-dihydro-5-phenyl-1-propargyl-1H-1,4-benzodiazepin-2-one] here?
Answer: 1.75 mg/kg

Question: What about the Duration of effect ([1]; compounds 1 and 4 compared) of the same compound?
Answer: comparable

Question: And the “median anxiolytic dose (AD50) compared with compound 4” value ([1]; four-plate study)?
Answer: nearly three times less than that of compound 4

Question: And the “anxiolytic effect compared with compound 4” value ([1]; in vivo)?
Answer: more effective anxiolytic effect than compound 4

Question: What about the “Reduction in Motor Activity Between 60 and 90 Minutes” value ([2]; 1 mg/kg) of the same compound?
Answer: +19%

Question: What about the “Reduction in Motor Activity Between 60 and 90 Minutes” value ([2]; 3 mg/kg) of the same compound?
Answer: -20%

Question: And the “changes in motor activity / voluntary motility” value ([2]; in vivo)?
Answer: does not produce changes in motor activity

Question: What about the “Rotarod Test % of Animals With Unchanged Equilibrium” value ([3]; 1 mg/kg) of the same compound?
Answer: 41.7%

Question: What about the “Rotarod Test % of Animals With Unchanged Equilibrium” value ([3]; 3 mg/kg) of the same compound?
Answer: 58.3%

Question: What about the “changes in equilibrium / motor coordination” value ([3]; in vivo) of the same compound?
Answer: does not produce changes in motor activity or in equilibrium

Question: What about the “Number of Responses, After - CER” value ([4]; 1.25 mg/kg/os) of the same compound?
Answer: 77.83 ± 20.41

Question: And the “Number of Responses, Before - CER” value ([4]; 1.25 mg/kg/os)?
Answer: 94.67 ± 13.86

Question: And the “Number of Responses, CER” value ([4]; 1.25 mg/kg/os)?
Answer: 27.50 ± 11.32

Question: What about the “Number of Responses, After - CER” value ([4]; 2.5 mg/kg/os) of the same compound?
Answer: 112.30 ± 17.56

Question: And the “Number of Responses, Before - CER” value ([4]; 2.5 mg/kg/os)?
Answer: 142.10 ± 20.03

Question: What about the “Number of Responses, CER” value ([4]; 2.5 mg/kg/os) of the same compound?
Answer: 62.10 ± 9.59

Question: And the “Number of Responses, After - CER” value ([4]; 5 mg/kg/os)?
Answer: 128.75 ± 17.13

Question: What about the “Number of Responses, Before - CER” value ([4]; 5 mg/kg/os) of the same compound?
Answer: 127.13 ± 20.89

Question: And the “Number of Responses, CER” value ([4]; 5 mg/kg/os)?
Answer: 63.50 ± 14.96

Question: What about the “activity in antagonizing CER compared with Compound 3” value ([4]; rat, in vivo) of the same compound?
Answer: about twice as active as Compound 3

Question: What about the “effectiveness in reducing anxiety compared with Composition 4” value ([4]; rat, in vivo) of the same compound?
Answer: twice as effective in reducing anxiety as Composition 4

Question: What about the “oral toxicity compared with Compounds 3 or 4” value ([5]; po) of the same compound?
Answer: lower oral toxicity

Question: What about the LD50 ([5]; Table 11, oral, species not given) of the same compound?
Answer: 5820 mg/kg

Question: And the ED50 [6]?
Answer: 3.3 mg/kg

Question: What about the “activity in depressing spontaneous mobility compared with Compound 4” value ([7]; in vivo) of the same compound?
Answer: approximately three times less active than Compound 4

Question: What about the ED50 ([7]; po, read-out: oral ED50 (depressing spontaneous mobility)) of the same compound?
Answer: 76.6 mg/kg

Question: And the “% Decrease (conditioned avoidance responses)” value (from here on “% Decrease”) ([8]; 5 mg/kg oral)?
Answer: -12%

Question: And the “Number of Conditioned Avoidance Responses” value ([8]; 5 mg/kg oral)?
Answer: 14.5 ± 0.7

Question: And the “% Decrease” value ([8]; 10 mg/kg oral)?
Answer: -19%

Question: What about the “Number of Conditioned Avoidance Responses” value ([8]; 10 mg/kg oral) of the same compound?
Answer: 13.4 ± 0.7

Question: What about the “% Decrease” value ([8]; 20 mg/kg oral) of the same compound?
Answer: -17%

Question: What about the “Number of Conditioned Avoidance Responses” value ([8]; 20 mg/kg oral) of the same compound?
Answer: 13.7 ± 0.9

Question: And the “% Decrease” value ([8]; 40 mg/kg oral)?
Answer: -44%

Question: And the “Number of Conditioned Avoidance Responses” value ([8]; 40 mg/kg oral)?
Answer: 9.3 ± 1.5

Question: And the “activity in reducing conditioned avoidance responses compared with Compound 2” value ([8]; in vivo)?
Answer: less active than Compound 2

Question: And the “increase in CER” value ([9]; 1.25 mg/kg os)?
Answer: ~350%

Question: And the “increase in CER” value ([9]; 5 mg/kg os)?
Answer: about 920%

Question: And the “activity in antagonizing tone-induced disruption compared with Compound 4” value ([9]; in vivo)?
Answer: about twice as active as Compound 4

Question: And the “duration of the ECoG effect” value [10, 13]?
Answer: ≤ 3 h

Question: What about the “first signs of sedation” value [10, 13] of the same compound?
Answer: 16 min

Question: What about the “duration of ECoG effects (three compounds compared)” value ([10]; unrestricted animals, compound 3 at 10 mg/kg) of the same compound?
Answer: about 31/2

Question: What about the “caudate nucleus bursts of rapid spikes, time of maximum periodicity” value ([11]; 7.5 mg/kg intragastric) of the same compound?
Answer: 45 min

Question: What about the caudate nucleus spikes ([11]; 7.5 mg/kg intragastric) of the same compound?
Answer: definite effect of compound 1 on the caudate nucleus

Question: What about the thalamic rhythms ([11]; 7.5 mg/kg intragastric) of the same compound?
Answer: greater amplitude and lower frequency

Question: And the “EEG activity of the hippocampus” value ([11]; in vivo)?
Answer: slow and of high amplitude; also recorded: increase the amplitude of these activities and also reduce their frequency

Question: And the “effect on duration of hippocampal after-discharge” value [12]?
Answer: markedly increased the duration of after-discharges

Question: And the “Duration of Hippocampal After-Discharge” value ([12]; 45 Mins.)?
Answer: 25 s and 14 s and 23 s and 18 s

Question: And the “Duration of Hippocampal After-Discharge” value ([12]; 90 Mins.)?
Answer: 27 s and 21 s and 25 s and 11 s and 23 s

Question: And the “Duration of Hippocampal After-Discharge” value ([12]; 135 Mins.)?
Answer: 27 s and 16 s and 26 s and 19 s and 25 s

Question: What about the “Duration of Hippocampal After-Discharge” value ([12]; 180 Mins.) of the same compound?
Answer: 25 s and 23 s and 24 s and 27 s

Question: What about the “Duration of Hippocampal After-Discharge” value ([12]; 225 Mins.) of the same compound?
Answer: 29 s and 26 s and 25 s and 23 s and 34 s

Question: And the “Duration of Hippocampal After-Discharge” value ([12]; 270 Mins.)?
Answer: 23 s and 26 s and 21 s and 40 s
